From article PMC9319634, “Antibacterial Peptide NP-6 Affects Staphylococcus aureus by Multiple Modes of Action” (International Journal of Molecular Sciences, 2022) come the findings set out here.

The subject of data set [1] is RAW 264.7 cells. As to the kind of experiment: CCK-8 cytotoxicity assay. It counts as cell-based. Conditions: CCK-8, 48 h incubation, absorbance 450 nm, mean, n = 3. The protocol: RAW 264.7 cells were purchased from the National Collection of Authenticated Cell Cultures (Shanghai, China). The cells were cultured in DMEM containing 10% FBS at 37 °C in a 5% CO2 incubator at constant temperature.
The Cell Counting Kit-8 (CCK-8) assay was conducted to measure the cytotoxicity of the peptides towards RAW 264.7 cells according to Deng et al.. The cells were incubated in Roswell Park Memorial Institute (RPMI)-1640 medium at 37 °C in a humidified atmosphere with 5% CO2. Then, they were added to a 96-well plate (3 × 10^3 cells/well) to adhere for 18 h. A total of 100 µL of the samples with different concentrations (256, 512, 1024, and 2048 µg/mL) diluted by H2O were added and incubated for another 48 h, after which the medium was disposed. A total of 100 µL of the CCK-8 test solution was added and incubated for 2 h at 37 °C. The absorbance values of the mixture at 450 nm were determined. The survival rate of cells was calculated according to the following formula:(2) Survival rate (%)=absorbancesample−absorbanceblank/absorbancecontrol−absorbanceblank×100
Background: Tetrazolium dyes change colour on reduction, which living cells bring about.

Data set [2] is described as follows: Serum stability (antimicrobial activity after incubation in fetal bovine serum, plate count). To be noted: peptide 1.0 mg/mL in 50% fetal bovine serum, 37 °C, 0, 3 and 6 h; remaining antimicrobial activity by plate count (CFU); repeated three times. Type of data set: in vitro ADME. The method, then:
The serum stability assay was conducted to evaluate the effect of serum on the antimicrobial activity of NP-6 using a method that was reported in a previous study. Peptide (1.0 mg/mL) was added to 50% fetal bovine serum and incubated at 37 °C for 0, 3, and 6 h, respectively. The cells that were incubated with PBS, NP-6, and serum were conducted as a blank and a control. The antimicrobial activity of NP-6 was measured using the plate count method. These assays were repeated three times independently. The inhibition rate of samples was calculated according to the following formula:(3) Inhibition rate (%)=Nblank−Nsample/Nblank×100 where Nblank is the colony forming units (CFU) of cells that were incubated with PBS and Nsample is the CFU of cells that were incubated with NP-6, NP-6+ serum, and serum, respectively. The inhibition rate of NP-6+ serum is expressed as the relative value to NP-6.

Data set [3] concerns mouse red blood cells. Put plainly: Hemolysis assay. Type of data set: cell-based. Conditions: 512 µg/mL (1MIC); mouse red blood cells in PBS 0.01 M pH 7.4, 37 °C, 1 h; absorbance 595 nm; 1% Triton X-100 = 100%; mean ± SD, n = 3. The method, then: The hemolytic activity of the peptide was evaluated according to Tang et al. with minor modifications. To prepare the red blood cell solution, 1.0 mL of fresh mouse red blood cells was centrifuged for 5 min at 1000× g, and the precipitates were resuspended in 10 mL of PBS (0.01 M, pH 7.4). A total of 50 µL of serial dilutions of peptides (2048, 1024, 512, 256, 128, 64, 32, 16, 8, and 4 µg/mL) were prepared in a 96-well plate by dissolving NP-6 and Nisin A in PBS (0.01 M, pH 7.4). Then, 50 µL of freshly prepared mouse red blood cell solution was added and incubated at 37 °C for 1 h. A total of 50 µL of PBS buffer only and 50 µL of Triton X-100 1% (w/v) were mixed with 50 µL of mouse red blood cell solution as negative and positive controls, respectively. After 1 h of incubation, all the samples were centrifuged at 1000× g for 5 min. The supernatant was collected, and the absorbance was at 595 nm with a UV–vis instrument at 25 °C. The percent hemolysis was calculated as the following equation:(1) %hemolysis=absorbancesample−absorbancenegative/absorbancepositive−absorbancenegative×100
Mouse red blood cells that were suspended in PBS and 1% Triton X-100 represented zero hemolysis and 100% hemolysis, respectively.

Peptide text beside a SMILES is read from it.

Regarding `CC[C@H](C)[C@H](NC(=O)CNC(=O)[C@@H](NC(=O)[C@H](CCCCN)NC(=O)[C@@H](NC(=O)[C@H](CCCCN)NC(=O)[C@H](CCCCN)NC(=O)[C@H](CC(=O)O)NC(=O)CNC(=O)[C@H](C)N)[C@@H](C)CC)[C@@H](C)CC)C(=O)N[C@@H](CC(N)=O)C(=O)NCC(=O)N[C@@H](Cc1ccccc1)C(=O)NCC(=O)N[C@@H](CCCNC(=N)N)C(=O)N[C@H](C(=O)NCC(=O)N[C@@H](CCCNC(=N)N)C(=O)N[C@@H](CC(C)C)C(=O)O)[C@@H](C)CC` [NP-6] (H-AGDKKIKIGINGFGRIGRL-OH), the “survival rate of RAW264.7 cells” value in data set [1] (1 × MIC (512 µg/mL)) is on record as 72.56%; in data set [1] (2 × MIC (1024 µg/mL)), 20.26%. Further, in data set [2], the “inhibition rate of NP-6 + serum samples relative to NP-6” value is on record as “exceeded 80%”. The compound also had a hemolysis activity in data set [3] of 2.39 ± 0.13%.
